Consider 3 compounds from patent US12630785B2, “Liquid fabric care compositions comprising capsules” (The Procter & Gamble Company, priority 2020, dated 2026).

Data set [1] in a line: Capsule perfume leakage in liquid fabric enhancer (LFE), headspace SPME GC/MS. Format: physicochemical. Here is the method: The testing of capsule leakage in liquid compositions (e.g., liquid fabric enhancer/“LFE” compositions and/or heavy-duty liquid/“HDL” detergents) is performed as follows. […] The 1 gram aliquot in the 7 ml vial is then mixed on a stirring plate for 24 h at 500 rpm, thereby ensuring that the capsules are broken by the grinding action of the stir bar against the bottom of the 7 ml vial. Optical microscopy can be used to verify that no more intact capsules remain. In case such capsules are found, the step is to repeated for an additional 24 h, or until all or almost all capsules are broken. Then, the formulation containing broken capsules is introduced into GC vials in a similar manner as for step (a). This yields total oil samples. It is to be noted that the capsule sample and the total oil sample are not analyzed on the same day, as there is a need to prepare the total oil sample after the capsule sample has been removed from storage. […] The perfume oil composition formulated herein is representative of the perfume oil composition that is present in the slurry. Then the free oil formulation is introduced into GC vials in a similar manner as for step (a). This yields reference samples, which must be used when analyzing both the capsule sample and the total oil sample. […] Two headspace vials are prepared for each sample. The sealed headspace vials are then allowed to equilibrate. Samples reach equilibrium after 3 hours at room temperature, but can be left to sit longer without detriment or change to the results, up until 24 hours after sealing the headspace vial. After equilibrating, the samples are analyzed by GC/MS. […] The perfume composition is analyzed by fast GC/MS in full scan mode. Ion extraction of the specific mass for each component is obtained. The leakage is calculated as follows, separately for the capsule sample and total oil sample, where “Area” denotes the area under the chromatogram peak corresponding to the PRM of interest: Once calculated for all PRMs for both the total oil sample and the capsule sample, the corrected PRM leakage can be calculated using the following formula: Once the corrected PRM leakage has been calculated for all PRMs, the Average leakage can be found by taking the arithmetic mean of each corrected PRM leakage. […] The resulting products are stored for one week at 35° C. At the end of the storage period, samples of each product composition are analyzed for perfume leakage out of the capsule using headspace analysis. The data is reported as a percentage, determined by comparing the amount of the individual perfume raw materials found in the headspace to the amount originally provided to the capsules.

Data set [2] is described as follows: Capsule perfume leakage in heavy-duty liquid (HDL) detergent, headspace SPME GC/MS. The class given is physicochemical. As for the experimental part:
The testing of capsule leakage in liquid compositions (e.g., liquid fabric enhancer/“LFE” compositions and/or heavy-duty liquid/“HDL” detergents) is performed as follows. […] The 1 gram aliquot in the 7 ml vial is then mixed on a stirring plate for 24 h at 500 rpm, thereby ensuring that the capsules are broken by the grinding action of the stir bar against the bottom of the 7 ml vial. Optical microscopy can be used to verify that no more intact capsules remain. In case such capsules are found, the step is to repeated for an additional 24 h, or until all or almost all capsules are broken. Then, the formulation containing broken capsules is introduced into GC vials in a similar manner as for step (a). This yields total oil samples. It is to be noted that the capsule sample and the total oil sample are not analyzed on the same day, as there is a need to prepare the total oil sample after the capsule sample has been removed from storage. […] The perfume oil composition formulated herein is representative of the perfume oil composition that is present in the slurry. Then the free oil formulation is introduced into GC vials in a similar manner as for step (a). This yields reference samples, which must be used when analyzing both the capsule sample and the total oil sample. […] Two headspace vials are prepared for each sample. The sealed headspace vials are then allowed to equilibrate. […] After equilibrating, the samples are analyzed by GC/MS. […] The perfume composition is analyzed by fast GC/MS in full scan mode. Ion extraction of the specific mass for each component is obtained. The leakage is calculated as follows, separately for the capsule sample and total oil sample, where “Area” denotes the area under the chromatogram peak corresponding to the PRM of interest: Once calculated for all PRMs for both the total oil sample and the capsule sample, the corrected PRM leakage can be calculated using the following formula: Once the corrected PRM leakage has been calculated for all PRMs, the Average leakage can be found by taking the arithmetic mean of each corrected PRM leakage. […] The resulting products are stored for one week at 35° C. At the end of the storage period, samples of each product composition are analyzed for perfume leakage out of the capsule using headspace analysis. The data is reported as a percentage, determined by comparing the amount of the individual perfume raw materials found in the headspace to the amount originally provided to the capsules.

Setting [3] is: PRM of Perfume 1 out of Comparative Example 4-1 capsules (polyacrylate shell), LFE Composition 1, 0.25 wt % perfume.
The mark [4] stands for this setting: PRM of Perfume 1 out of Comparative Example 6-1 capsules (no second shell component), LFE Composition 1.
[5] abbreviates: PRM of Perfume 1 out of Comparative Example 10-1 capsules (per EP2500087B1), LFE Composition 1.
Setting [6] is: PRM of Perfume 1 out of Comparative Example 10-2 capsules (per WO2010013250A2, with IPM), LFE Composition 1.
The mark [7] stands for this setting: PRM of Perfume 1 out of Example 2, Sample A capsules, LFE Composition 1 (Ester Quat 1).
Where [8] appears, read: PRM of Perfume 1 out of Example 2, Sample A capsules, LFE Composition 2 (Ester Quat 2).
Setting [9] is: PRM of Perfume 1 out of Example 2, Sample A capsules, LFE Composition 3 (Ester Quat 3).
The mark [10] stands for this setting: PRM of Perfume 1 out of Example 4-1 capsules (silica shell), LFE Composition 1, 0.25 wt % perfume.
Setting [11] is: PRM of Perfume 1 out of Example 6-1 capsules (w/ second shell component), LFE Composition 1.
The mark [12] stands for this setting: PRM of Perfume 1 out of Example 10-1 capsules (Sample F, Perfume 1/IPM 40/60), LFE Composition 1.
The mark [13] stands for this setting: PRM of Perfume 1 out of Example 10-2 capsules (Sample A), LFE Composition 1.
The mark [14] stands for this setting: PRM of Perfume 2 out of Capsule Sample C, LFE Composition 1.
[15] abbreviates: PRM of Perfume 3 out of Capsule Sample D, LFE Composition 1.
Setting [16] is: PRM of Perfume 1 out of Comparative Example 5-1 capsules (polyacrylate shell).
Where [17] appears, read: PRM of Perfume 1 out of Comparative example 5-2 capsules (per EP2500087B1).
Where [18] appears, read: PRM of Perfume 1 out of Comparative example 5-3 capsules (per WO2010013250A2).
Where [19] appears, read: PRM of Perfume 1 out of Example 5-1 capsules (silica shell).

Take `CCOC(=O)C(C)CC` (stereo not shown) [Ethyl 2-methyl butyrate]: the “Leakage (as %) after 1 week at 35° C.” value in data set [1] (setting [3]) was determined as 61%; in data set [1] (setting [4]), 101%; in data set [1] (setting [5]), 100%; in data set [1] (setting [6]), 100%; in data set [1] (setting [7]), 1.3%; in data set [1] (setting [8]), 1.0%. In addition, the “Leakage (as %) after 1 week at 35° C.” value came out at 2.2% in data set [1] (setting [9]); 4% in data set [1] (setting [10]); 6% in data set [1] (setting [11]); 28% in data set [1] (setting [12]); 6% in data set [1] (setting [13]); 21% in data set [1] (setting [14]). Further, the “Leakage (as %) after 1 week at 35° C.” value is 14% in data set [1] (setting [15]); 75% in data set [2] (setting [16]); 103% in data set [2] (setting [17]); 99% in data set [2] (setting [18]); 38% in data set [2] (setting [19]).

Consider `CC(=O)O[C@@H]1C[C@H]2CC[C@]1(C)C2(C)C` (racemic) [iso-Bornyl acetate], for which the “Leakage (as %) after 1 week at 35° C.” value in data set [1] (setting [3]) is on record as 4%; in data set [1] (setting [4]), 5%; in data set [1] (setting [5]) it was 89%; in data set [1] (setting [6]), 92%; in data set [1] (setting [7]), 1.6%; in data set [1] (setting [8]), 0.8%. The “Leakage (as %) after 1 week at 35° C.” value in data set [1] (setting [9]) is 1.0%; in data set [1] (setting [10]) it was 8%; in data set [1] (setting [11]), 9%; in data set [1] (setting [12]) it was 19%; in data set [1] (setting [13]), 9%; in data set [1] (setting [15]), 8%. Besides, the “Leakage (as %) after 1 week at 35° C.” value in data set [2] (setting [16]) turned out to be 1%; in data set [2] (setting [17]) it was 105%; in data set [2] (setting [18]) it was 102%; in data set [2] (setting [19]), 31%.

Take `CC1=CC(C)C(C=O)CC1` (stereo not shown) [2,4-dimethylcyclohex-3-ene-1-carbaldehyde]: the “Leakage (as %) after 1 week at 35° C.” value in data set [1] (setting [3]) stood at 31%; in data set [1] (setting [4]), 94%; in data set [1] (setting [5]) it was 94%; in data set [1] (setting [6]) it was 96%; in data set [1] (setting [7]), 2.1%; in data set [1] (setting [8]), 1.1%. Besides, the “Leakage (as %) after 1 week at 35° C.” value came out at 1.6% in data set [1] (setting [9]); 7% in data set [1] (setting [10]); 8% in data set [1] (setting [11]); 22% in data set [1] (setting [12]); 8% in data set [1] (setting [13]); 12% in data set [1] (setting [14]). The “Leakage (as %) after 1 week at 35° C.” value in data set [2] (setting [16]) is recorded as 12%; in data set [2] (setting [17]) it was 104%; in data set [2] (setting [18]), 101%; in data set [2] (setting [19]), 31%.
